ChEMBL document CHEMBL1153297, “Discovery of non-peptidergic MrgX1 and MrgX2 receptor agonists and exploration of an initial SAR using solid-phase synthesis” (Bioorg Med Chem Lett, 2009)
The source made the active and inactive calls. No cut-off for these calls is given here. Bridge positions count the residues as written; N and C are the ends. Square brackets hold non-standard residues; d marks the D form. Peptide text beside a SMILES is read from it.

Legend:
[1] = target: T1, Mas-related G-protein coupled receptor member X1 (Homo sapiens, UniProt Q96LB2); test: Agonist activity at human MrgX1 receptor; format: functional
T1 sequence (Q96LB2 whole entry): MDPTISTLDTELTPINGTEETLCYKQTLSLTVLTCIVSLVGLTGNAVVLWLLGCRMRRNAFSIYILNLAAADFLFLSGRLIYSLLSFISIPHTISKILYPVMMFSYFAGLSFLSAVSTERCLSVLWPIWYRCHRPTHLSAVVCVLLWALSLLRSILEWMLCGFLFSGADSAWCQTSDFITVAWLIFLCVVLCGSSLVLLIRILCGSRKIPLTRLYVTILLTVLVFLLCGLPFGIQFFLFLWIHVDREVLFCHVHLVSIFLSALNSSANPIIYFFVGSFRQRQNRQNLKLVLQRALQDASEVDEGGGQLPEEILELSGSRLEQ

[2] = target: T1, Mas-related G-protein coupled receptor member X1; test: Agonist activity at human MrgX1 receptor at 10 uM relative to BAM22; format: functional
[3] = target: T2, Mas-related G-protein coupled receptor member X2 (Homo sapiens) (UniProt Q96LB1); test: Agonist activity at human MrgX2 receptor at 10 uM relative to cortistatin-14; format: functional
T2 sequence (whole entry): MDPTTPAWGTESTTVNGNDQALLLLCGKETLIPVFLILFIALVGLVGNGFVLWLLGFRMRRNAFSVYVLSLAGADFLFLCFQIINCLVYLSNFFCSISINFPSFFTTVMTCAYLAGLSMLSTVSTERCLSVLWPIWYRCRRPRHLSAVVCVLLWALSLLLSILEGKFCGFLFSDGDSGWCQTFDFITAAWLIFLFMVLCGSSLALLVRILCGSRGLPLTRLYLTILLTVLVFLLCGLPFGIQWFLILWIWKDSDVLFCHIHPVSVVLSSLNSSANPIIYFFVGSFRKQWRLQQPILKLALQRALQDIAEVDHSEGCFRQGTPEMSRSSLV

[4] = Agonist activity at monkey MrgX1 receptor; format: functional, Macaca mulatta
Macaca mulatta [5] = organism: Macaca mulatta; test: Agonist activity at monkey MrgX1 receptor at 10 uM relative to BAM22; format: functional
Macaca mulatta [6] = organism: Macaca mulatta; test: Agonist activity at monkey MrgX2 receptor at 10 uM relative to cortistatin-14; format: functional
[7] = Agonist activity at monkey MrgX2 receptor; format: functional, Macaca mulatta
[8] = target: T3, Mas-related G-protein coupled receptor member X2 (Homo sapiens, UniProt Q96LB1); test: Agonist activity at human MrgX2 receptor; format: functional
T3 sequence (Q96LB1 whole entry): T2 sequence (whole entry)

[9] = target: T1, Mas-related G-protein coupled receptor member X1; test: Agonist activity at MrgX1 receptor by calcium mobilization assay; format: functional
[10] = Metabolic stability in human liver microsome assessed as intrinsic clearance; format: ADME; conditions: liver microsomes

Structure (SMILES) | EC50 [1] | Efficacy [2] | Efficacy [3] | pEC50 [4] | Efficacy (Macaca mulatta [5]) | Efficacy (Macaca mulatta [6]) | pEC50 [7] | EC50 [8] | Activity [9] | microsomal CLint [10]
CCC(C)[C@H]1C(=O)Nc2ccc(NCCCN(C)C)cc2-c2nc3cc(C(=O)NCc4cccc(C(F)(F)F)c4)ccc3n21 (stereo partly specified) | 63.1 nM | 147% | 103% | 6.1 | 157% | 85% | 5.4 | 631 nM |  | 
CC(=O)NC1CCN(c2ccc3c(c2)-c2nc4cc(C(=O)N5CCN(c6ccc(F)cc6)CC5)ccc4n2[C@@H](C(C)C)C(=O)N3)C1 (stereo partly specified) | 2510 nM | 98% | inactive | 5.6 | 89% | inactive |  |  |  | 
CC(C)[C@H]1C(=O)Nc2ccc(NCCCN(C)C)cc2-c2nc3cc(C(=O)N4CCN(c5ccc(F)cc5)CC4)ccc3n21 | 631 nM | 108% | 60% | 5.8 | 102% | inactive |  |  |  | 
CC(C)[C@H]1C(=O)Nc2ccc(NC3CCCCCC3)cc2-c2nc3cc(C(=O)N4CCCN(C)CC4)ccc3n21 |  | inactive | 110% |  | inactive | 50% | 6.4 | 316 nM |  | 
CCC(C)[C@H]1C(=O)Nc2ccc(N3CCC(NC(C)=O)C3)cc2-c2nc3cc(C(=O)NCc4cccc(C(F)(F)F)c4)ccc3n21 (stereo partly specified) | 316 nM | 129% | 41% | 6.4 | 124% | 27% | 5.7 | 1260 nM |  | 
CC(C)[C@H]1C(=O)Nc2ccc(NCc3ccccc3)cc2-c2nc3cc(C(=O)N(C)C4CCN(C)CC4)ccc3n21 |  | inactive | 87% |  |  |  |  | 158 nM |  | 
CCC(C)[C@H]1C(=O)Nc2ccc(NCCOCCOCCN)cc2-c2nc3cc(C(=O)NCc4cccc(C(F)(F)F)c4)ccc3n21 (stereo partly specified) | 316 nM | 135% | inactive | 6.1 | 126% | inactive |  |  |  | 

Continued, values first:

EC50 [1] | Efficacy [2] | Efficacy [3] | pEC50 [4] | Efficacy (Macaca mulatta [5]) | Efficacy (Macaca mulatta [6]) | pEC50 [7] | EC50 [8] | Activity [9] | microsomal CLint [10] | Structure (SMILES)
794 nM | 100% | inactive | 4.5 | 50% | inactive |  |  |  |  | CSCC[C@H](NC(=O)[C@H](Cc1ccccc1)NC(=O)CNC(=O)CNC(=O)[C@@H](N)Cc1ccc(O)cc1)C(=O)N[C@@H](CCCNC(=N)N)C(=O)N[C@@H](CCCNC(=N)N)C(=O)N[C@H](C(=O)NCC(=O)N[C@@H](CCCNC(=N)N)C(=O)N1CCC[C@H]1C(=O)N[C@@H](CCC(=O)O)C(=O)N[C@@H](Cc1c[nH]c2ccccc12)C(=O)N[C@@H](Cc1c[nH]c2ccccc12)C(=O)N[C@@H](CCSC)C(=O)N[C@@H](CC(=O)O)C(=O)N[C@@H](Cc1ccc(O)cc1)C(=O)N[C@@H](CCC(N)=O)C(=O)N[C@@H](CCCCN)C(=O)N[C@@H](CCCNC(=N)N)C(=O)N[C@@H](Cc1ccc(O)cc1)C(=O)NCC(=O)O)C(C)C
 | inactive | 100% |  | inactive | 86% | 6.1 |  |  |  | C[C@@H](O)[C@@H]1NC(=O)[C@@H](CCCCN)NC(=O)[C@H](Cc2c[nH]c3ccccc23)NC(=O)[C@H](Cc2ccccc2)NC(=O)[C@H](Cc2ccccc2)NC(=O)[C@H](CC(N)=O)NC(=O)[C@H](CCCCN)NC(=O)[C@@H](NC(=O)[C@@H]2CCCN2)CSSC[C@@H](C(=O)N[C@@H](CCCCN)C(=O)O)NC(=O)[C@H](CO)NC(=O)[C@H](CO)NC(=O)[C@@H](Cc2ccccc2)NC1=O [CORTISTATIN-14] (H-PCKNFFW[dK]T[dF]SSCK-OH; disulfide 2-13)
1260 nM | 94% | inactive | 6 | 57% | inactive |  |  |  |  | CC(C)[C@H]1C(=O)Nc2ccc(NCCN3CCCCC3)cc2-c2nc3cc(C(=O)N4CCN(c5ccc(F)cc5)CC4)ccc3n21
 |  |  |  |  |  |  | 501 nM |  |  | C[C@@H](O)[C@@H]1NC(=O)[C@H](CCCCN)NC(=O)[C@H](Cc2c[nH]c3ccccc23)NC(=O)[C@H](Cc2ccccc2)NC(=O)[C@H](Cc2ccccc2)NC(=O)[C@H](CC(N)=O)NC(=O)[C@H](CCCCN)NC(=O)[C@@H](NC(=O)[C@@H]2CCCN2)CSSC[C@@H](C(=O)N[C@@H](CCCCN)C(=O)O)NC(=O)[C@H](CO)NC(=O)[C@H](CO)NC(=O)[C@H](Cc2ccccc2)NC1=O [CORTISTATIN-14] (H-PCKNFFWKTFSSCK-OH; disulfide 2-13)
200 nM | 133% | 28% | 6.1 | 127% | inactive |  | 2000 nM |  |  | CCC(C)[C@H]1C(=O)Nc2ccc(NCCN3CCCCC3)cc2-c2nc3cc(C(=O)NCc4cccc(C(F)(F)F)c4)ccc3n21 (stereo partly specified)
 | inactive | 216% |  | inactive | 133% | 6.7 | 398 nM | Active | 5 µL/min/mg | CC(C)[C@H]1C(=O)Nc2ccc(N3CCN(Cc4ccccc4)CC3)cc2-c2nc3cc(C(=O)N(C)C4CCN(C)CC4)ccc3n21
